Data set [1] concerns ICR mice. Nature of the data set: Mouse forced swimming test. The data set is classed as in vivo. Conditions: intragastric; for Immobility time: mice, 1 h after administration, mean±SD, n=12; for minimum effective dose (MED) / ED50: mouse forced swimming; for ED50: po, read-out: ED50 (median effective dose, FST-ED50). As for the experimental part: SPF grade ICR mice were taken. The animals were grouped by weight, 12 animals per group, and the animals were allowed to acclimate for at least 3 days before behavioural test.
The behavioural test was started 1 h after intragastric administration. The mice were placed in a transparent glass cylinder with water (water depth: 15 cm, water temperature: 23-25° C.) and video recorded for 6 min (the background was an LED light panel). At the end of the time, the mice were removed from the water and the next batch of mice was subjected to the behavioural test. Water was changed after every 3 batches of tests. After the test, the video of the behavioural test was derived and the cumulative immobility time of the mice 4 min after the 6 min forced swimming period was analyzed using the Forced Swim Scant 2.0 software.
The test results are expressed as mean±SD. Comparisons between each group and the vehicle group were conducted using the t-test. The differences were considered statistically significant when. P<0.05.

Data set [2] has as its system ICR mice. In words: in vivo. Conditions: mouse acute toxicity LD50 / forced swimming ED50. As for the experimental part: (§1) The dose administered at the time of the formal test was determined based on the dose of the compound in the preliminary experiment that caused 100% and 0% death in mice. In the formal test, ICR mice were taken and randomly grouped, with 10 mice in each group, half male and half female, which were subjected to intragastric administration at 10 mL/kg.
(§2) From the results of the mouse acute toxicity test, the compound of formula (I) is least toxic. The therapeutic index (TI=LD50/ED50) was calculated based on the results of the mouse acute toxicity and efficacy test.

Data set [3] is described as follows: in vivo. The note with it: both sexes, ICR, mouse, in vivo, po. On the procedure:
as §1, §2

A short description of data set [4]: Solubility experiment (HPLC, external standard method). Type of data set: physicochemical. As for the experimental part:
The concentrated solution was placed in a 20° C. water bath thermostatic oscillator for overnight oscillation (supersaturation) and filtered. The filtrate was taken, 1 mL of which was precisely measured and placed in a 100 mL volumetric flask. A diluent (water) was added, the mixture was diluted to volume and mixed well, 1 mL of which was precisely measured and placed in a 10 mL volumetric flask. A diluent was added, the mixture was diluted to volume and mixed well as a test sample solution.
Control substance solution: A proper amount of 5 samples were respectively taken, precisely measured, dissolved in a proper amount of a diluent by ultrasonication, and diluted to give a solution containing about 0.1 mg of the sample per 1 mL. Two duplicate samples were prepared for each batch.
• (1) Preparation of buffer: About 2.6428 g ammonium sulfate was weighed and dissolved in 1000 mL of water. 2 mL of triethylamine was added, and the pH value was adjusted to 4.0 with dilute sulfuric acid. • (2) Preparation of mobile phase: Methanol-0.02 mol/L ammonium sulfate solution (2 mL triethylamine was added per 1000 mL, and the pH value was adjusted to 4.0 with dilute sulfuric acid) (45:55). 1000 mL was prepared, mixed well, filtered, and used after ultrasonic treatment.
Detection wavelength: 230 nm; flow rate: 1.0 mL/min; column temperature: 35° C.; sample injection volume: 20 μL; chromatographic column: Agilent Eclipse XDB-C18 chromatographic column (4.6×150 mm, 5 μm); mobile phase: methanol-0.02 mol/L ammonium sulfate solution (2 mL triethylamine was added per 1000 mL, and the pH value was adjusted to 4.0 with dilute sulfuric acid) (45:55).
20 μL of each solution was precisely measured, and injected separately into a liquid chromatograph. The chromatograms were recorded, and the solubility of the compounds was determined according to an external standard method.

Data set [5] in a line: in vivo. Conditions: both, beagle, dog; for half-life: t1/2.
Experimental: (§3) Each group had six beagle dogs, half male and half female.
(§4) Preparation of solutions: • 1) Intravenous injection administration: 0.9% Normal saline was used as a vehicle. • 2) Oral administration: According to the dose of 10 mg/kg (based on base), a corresponding mass of the drug was weighed according to the actual weight of the animal, and then filled into a capsule to be administered to the animal.
The next data set in a line: Hygroscopicity test. The data set is classed as physicochemical. Conditions: 25° C.±1° C., relative humidity 80%±2%, 24 h; for Hygroscopicity: hydrochloride. On the procedure:
17.1. A dried glass weighing bottle with a plug (outer diameter: 50 mm; height: 15 mm) was taken and placed in a suitable thermostatic dryer (with saturated ammonium chloride or ammonium sulfate solution placed in the lower part) at 25° C.±1° C. or an artificial climate box (with a set temperature at 25° C.±1° C. and relative humidity at 80%±2%) on the day before the test, and the weight (m1) was precisely measured. 17.2. An appropriate amount of the A crystal form of the compound of formula (I) was taken and spread in the above weighing bottle, with the thickness of the test sample being about 1 mm in general, and the weight (m2) was precisely measured. […] The weighing bottle was opened and placed in the above conditions at constant temperature and humidity for 24 h together with the cap. 17.4. The weighing bottle was capped, and the weight (m3) was precisely measured. [formula]

For data set [6] the following is noted: both, beagle, dog, in vivo.
Experimental: as §3, §4
Data set [7] can be described thus: Experiments of influencing factors (crystal form stability, XRPD). Type of data set: physicochemical. Conditions: listed as A crystal form, hydrochloride; for Crystal form after High temperature of 60° C. / Crystal form after Illumination of 5000 1x / Crystal form after High humidity of 92.5%: XRPD; for Crystal form after Illumination of 5000 1x: photostability tester 5000 lx; for Crystal form after High humidity of 92.5%: relative humidity 92.5%. As for the experimental part: High temperature experiment: About 1 g of the A, B, and C crystal forms were respectively weighed, placed in a clean watch glass, and placed at 60° C. for 10 days. The samples were taken on day 0, day 5, day 10, and day 30 for XRPD analysis.
High humidity experiment: About 1 g of the A, B, and C crystal form samples were respectively weighed, placed in a clean watch glass, and placed at a relative humidity of 92.5% for 10 days. The samples were taken on day 0, day 5, day 10, and day 30 for XRPD analysis.
Illumination experiment: About 1 g of the A, B, and C crystal form samples were respectively weighed, placed in a clean watch glass, laid flat, and placed in a photostability tester (the illumination was 5000 lx) for 10 days. The samples were taken on day 0, day 5, day 10, and day 30 for XRPD analysis.

The mark [8] stands for this setting: 95% confidence interval of LD50.
The mark [9] stands for this setting: Mouse acute toxicity LD50 (median lethal dose).

Like-named read-outs stand apart in the source and are kept apart here.

The values that follow come from patent publication US20260258009A1, “3-[(BENZO[D][1,3]DIOXOLANE-4-YL)OXY]PROPYLAMINE HYDROCHLORIDE, OPTICAL ISOMER AND CRYSTAL THEREOF, AND PREPARATION METHOD THEREFOR” (priority 2022, published 2026).

For orientation: ED50 means the midpoint of the dose-response relation. Usually LD50 stands for the dose at which mortality reaches 50%. In general, solubility refers to the dissolved amount per volume that the medium holds. Consider `CNCCC(Oc1cccc2c1OCO2)c1ccccc1.Cl` (centres unmarked) [N-methyl-3-phenyl-3-[(benzo[d][1,3]dioxolan-4-yl)oxy]propylamine hydrochloride], for which the Immobility time in the data set with ICR mice [1] (0.2 mg/kg) came out at 165.3 ± 37.2 s; in the data set with ICR mice [1] (0.4 mg/kg) it was 125.6 ± 53.6 s; in the data set with ICR mice [1] (0.8 mg/kg), 86.9 ± 53.4 s; with ICR mice [1] (1.6 mg/kg), 83.2 ± 52.9 s; with ICR mice [1] (15 mg/kg) it was 64.3 ± 73.7 s; with ICR mice [1] (30 mg/kg) it was 3.7 ± 5.9 s. Moreover, the “minimum effective dose (MED)” value in the data set with ICR mice [1] is on record as 0.4 mg/kg. In addition, the ED50 with ICR mice [1] came to 1.81 mg/kg. The “TI = LD50/ED50 (therapeutic index)” value in the data set with ICR mice [2] is 62.0. For the same molecule, the LD50 at 7 days in the data set “in vivo [3]” (mice, single intragastric administration, observed within 7 days, read-out: Mouse acute toxicity LD50 (median lethal dose)) was 112 mg/kg; in “in vivo [3]” (mice, single intragastric administration, read-out: 95% confidence interval of LD50), 102 to 122 mg/kg. Moreover, in data set [4] (water, 20 °C, water, thermodynamic from solid, Water, 20° C., overnight oscillation, read-out: Solubility), the solubility turned out to be 1500 mg/mL.
By AUC(0-t) is commonly meant exposure summed from dosing to a finite time, without extrapolation to infinity. Low readings indicate low exposure, high ones high exposure. The AUC(0-inf) is the area under the concentration-time curve extrapolated to infinity. What is called Cmax is the peak of the concentration-time curve. Broadly, the Tmax is the time at which the peak concentration occurs. For orientation: half-life means the time needed for the level to fall by half in the phase considered. A higher half-life goes with slow loss. By bioavailability is commonly meant dose-corrected exposure relative to a reference, in per cent. A low value points to poor availability. Take `CNCC[C@@H](Oc1cccc2c1OCO2)c1ccccc1.Cl` [Compound of formula I, (R)—N-methyl-3-phenyl-3-[(benzo[d][1,3]dioxolan-4-yl)oxy]propylamine hydrochloride]: the Immobility time in the data set with ICR mice [1] (0.2 mg/kg) was determined as 178.6 ± 17.0 s; with ICR mice [1] (0.4 mg/kg), 105.0 ± 72.1 s; with ICR mice [1] (0.8 mg/kg), 106.0 ± 59.7 s; with ICR mice [1] (1.6 mg/kg) it was 55.4 ± 41.1 s; with ICR mice [1] (15 mg/kg), 13.0 ± 23.3 s; in the data set on ICR mice [1] (30 mg/kg), 7.6 ± 4.4 s. In addition, in the data set with ICR mice [1], the “minimum effective dose (MED)” value was 0.4 mg/kg. For the same molecule, the ED50 in the data set with ICR mice [1] turned out to be 0.96 mg/kg. In addition, the “TI = LD50/ED50 (therapeutic index)” value in the data set on ICR mice [2] came out at 120.4. For the same molecule, the LD50 at 7 days in “in vivo [3]” (setting [8]) was 106 to 125 mg/kg; in the data set “in vivo [3]” (setting [9]), 116 mg/kg. This molecule also returned a solubility in data set [4] (20 °C, water, thermodynamic from solid, Solubility) of 33.2 mg/mL. Moreover, the AUC(0-t) amounted to 117 ng·h/mL in the data set “in vivo [5]” (iv, 0.3 mg/kg) and 100 ng·h/mL in the data set “in vivo [5]” (po, 1 mg/kg). The AUC(0-inf) in the data set “in vivo [5]” (iv, 0.3 mg/kg) stood at 119 ng·h/mL; in the data set “in vivo [5]” (po, 1 mg/kg) it was 102 ng·h/mL. Also, the Cmax in “in vivo [5]” (iv, 0.3 mg/kg) came out at 80.4 ng/mL; in the data set “in vivo [5]” (po, 1 mg/kg), 28.9 ng/mL. Further, the Tmax in “in vivo [5]” (iv, 0.3 mg/kg) was found to be 0.08 h; in the data set “in vivo [5]” (po, 1 mg/kg), 1.23 h. The half-life in the data set “in vivo [5]” (iv, 0.3 mg/kg) is 2.15 h; in the data set “in vivo [5]” (po, 1 mg/kg), 2.36 h. The same molecule showed a bioavailability in the data set “in vivo [5]” (po, Bioavailability) of 25.7%.
Take `CNCC[C@H](Oc1cccc2c1OCO2)c1ccccc1.Cl` [(S)—N-methyl-3-phenyl-3-[(benzo[d][1,3]dioxolan-4-yl)oxy]propylamine hydrochloride]: the Immobility time with ICR mice [1] (0.2 mg/kg) turned out to be 180.4 ± 29.4 s; in the data set on ICR mice [1] (0.4 mg/kg), 167.5 ± 45.7 s; with ICR mice [1] (0.8 mg/kg), 147.0 ± 65.4 s; in the data set with ICR mice [1] (1.6 mg/kg), 94.1 ± 35.4 s; with ICR mice [1] (15 mg/kg), 8.9 ± 8.7 s; with ICR mice [1] (30 mg/kg) it was 6.2 ± 9.7 s. Moreover, in the data set with ICR mice [1], the “minimum effective dose (MED)” value is recorded as 1.6 mg/kg. Moreover, the ED50 in the data set on ICR mice [1] is 1.74 mg/kg. Also, the “TI = LD50/ED50 (therapeutic index)” value with ICR mice [2] came out at 38.4. Besides, the LD50 at 7 days in the data set “in vivo [3]” (setting [8]) was 13.1 to 91.3 mg/kg; in the data set “in vivo [3]” (setting [9]), 66.8 mg/kg.
On to `CNCC[C@@H](Oc1cccc2c1OCO2)c1ccccc1.Cl` [Crystal form A of compound of formula (I)] [(R)—N-methyl-3-phenyl-3-[(benzo[d][1,3]dioxolan-4-yl)oxy]propylamine hydrochloride], for which the Weight gain in the data set “Hygroscopicity test” is listed as 0.01%. Further, the Hygroscopicity entry in the data set “Hygroscopicity test” (listed as A crystal form of the compound of formula (I)) is recorded as “no or almost no hygroscopicity”. The Hygroscopicity entry in “Hygroscopicity test” (listed as A crystal form) is recorded as “no or almost no hygroscopicity”. Moreover, the solubility in data set [4] turned out to be 35.55 mg/mL. Further, in data set [6] (iv, 0.3 mg/kg), the “AUC(0-t)” value amounted to 123.7 ng·h/mL, the “AUC(0-∞)” value was 124.5 ng·h/mL, the Cmax is 83.6 ng/mL and the Tmax was 0.08 h. The molecule also registered a t1/2 in data set [6] (iv, 0.3 mg/kg) of 2.08 h. For the same molecule, the bioavailability in data set [6] (po) turned out to be 28.2%. Besides, in data set [6] (po, 1 mg/kg), the “AUC(0-t)” value came to 116.3 ng·h/mL, the “AUC(0-∞)” value was found to be 117.1 ng·h/mL, the Cmax amounted to 35.3 ng/mL and the time of peak concentration (Tmax) came out at 0.92 h. The same molecule showed a t1/2 in data set [6] (po, 1 mg/kg) of 2.48 h. In addition, in data set [7] (5 days), the “Crystal form after High temperature of 60° C.” value (from here on “Crystal form … of 60° C.”) is listed as “Crystal form A”, the “Crystal form after Illumination of 5000 1x” value (shortened to “Crystal form … of 5000 1x”) was “Crystal form A” and the “Crystal form after High humidity of 92.5%” value (“Crystal form … of 92.5%” for short) is recorded as “Crystal form A”. Besides, in data set [7] (10 days), the “Crystal form … of 60° C.” value is listed as “Crystal form A”, the “Crystal form … of 5000 1x” value was “Crystal form A” and the “Crystal form … of 92.5%” value was “Crystal form A”. Also, in data set [7] (30 days), the “Crystal form … of 60° C.” value is listed as “Crystal form A”, the “Crystal form … of 5000 1x” value is “Crystal form A” and the “Crystal form … of 92.5%” value was “Crystal form A”. In addition, the “Crystal form stability (experimental conclusion)” value in data set [7] (high temperature, high humidity, illumination, condition stated in the value) is “can keep stable under high temperature, high humidity, and illumination”.
